“Also recorded” adds a separate entry of the source. Read-outs that look alike come from different tables or passages of the source.
Key:
[1] = literature reports and Metvix package leaflet; cited from earlier work
stratum corneum = assay: PpIX fluorescence on intact skin vs skin with stratum corneum removed (permeability through stratum corneum); assay type: in vivo, human; details: for Fluoresence epidermis: Cold cream formulation, 3 hours after topical administration; for increase of fluorescence upon removal of the stratum corneum: SC removed vs intact skin
Experimental: Permeability of compounds of the invention through the stratum corneum is assessed by measurements of fluorescence of PpIX. The expression “PpIX”, for the purpose of the present specification, stands for PpIX as reported in the literature and other natural porphyrins producing a fluorescent signal following illumination with suitable light. Permeability of the compounds of the present invention is determined by comparing PpIX-induced fluorescence of compounds of the invention applied on the surface of intact skin with fluorescence induced by the same compounds applied on skin from which the stratum corneum has been removed.
The stratum corneum was removed by dry shaving with a razor blade (BIC Classic 1 lame). The lame is gently swept 8 times over the skin without using water, razor foam or any other lubricant.
Formulations comprising compounds of the invention and controls are administered topically on the forearm or the leg using the Tegaderm™ transparent dressing. This dressing enables the transport of water and oxygen according to the specifications of the manufacturer. This dressing was removed and the remaining formulation cleaned with water just before the measurements.
A fluorescence imaging system illustrated in FIG. IX of WO 03/041673 is used to assess the extent and level of PpIX production in “macroscopic” samples (parts of the human body such as: forearm, leg, back, etc.). The experimental equipment and descriptions, as well as the ALA-DGME compounds disclosed therein are expressly incorporated herein by reference. As the goal is to assess the relative level of PpIX, red light at 635 nm is chosen as PpIX fluorescence excitation wavelength. It is indeed well known that red light penetrates deeper in the cutaneous tissues than green and violet light, the later two wavelengths corresponding to larger PpIX absorption peaks (see the PpIX fluorescence excitation and emission spectra presented on the right side in FIG. IX of WO 03/041673).
As presented in the schematic diagram presented in FIG. IX of WO 03/041673, this fluorescence imaging system involves a modified 300 W D-light source 1 (Xe arc lamp from Storz, Tuttlingen, Germany) equipped with a red bandpass filter (635 nm, 20 nm FWHM; Chroma, USA). This fluorescence excitation light is coupled in a Storz 4 mm diameter light guide 2. The output of this light guide is imaged on the tissue sample 3 with a projection objective 4 (Nikon, Japan; A F Nikkor; 1:1.4 D/50 mm) to generate a homogenous spot of 2.5 cm in diameter with an irradiance of 2 mW/cm^2 at 635 nm. The distance between this projection objective 4 and the sample 3 is 25 cm. Therefore, the light beam illuminating the sample can be considered as parallel. The fluorescence is collected by another objective 5 (Fujinon, Japan; TV zoom lens; 1:1.2/12.5-75 mm; Type H6X12.5R-MD3) through a longpass filter 6 (Schott, Germany; RG665) and the image detected by a scientific CCD camera (752×582 pixels CF 8/1 Kappa, Gleichen, Germany) equipped 7 with an image intensifier (Proxifier BV 256-2FcZ-CH, Proxitronic, Bensheim, Germany). The images are captured by the 8-bits camera frame grabber and saved on the computer 8 with the “Kappa Imagebase-control” software. Image treatment is carried out using the IPLab imaging software. The spatial resolution of the complete setup has been measured with an USAF resolution target and the value we obtained in the sample plan is 3 lp/mm, the size of the image detected by the camera being 3×4 cm^2.
A reference sample is been designed to enable a comparison of the relative fluorescence brightness between samples investigated at different times. This reference consists of a ruby disk (diameter: 12 mm; thickness: 1.02 mm; Type 8Sp3, Hans Stettler S A, Lyss, Switzerland) covered with a neutral density filter (T=2.27%) so that the signal obtained with this reference sample corresponds to the typical tissue fluorescence detected in our conditions. The images are analyzed using the NIH image software. […]

hair follicles = assay: Fluorescence imaging of skin after hair removal (selectivity for hair follicle); assay type: in vivo, human; details: for distribution of fluorescence on skin: 20 wt. % formulation, applied after epilation
Experimental: FIGS. 1-10 are fluorescence images of human forearm or leg skin areas of 2.5 cm in diameter, the pictures being taken three hours after administration of different photosensitizer precursors under variable experimental conditions.
FIGS. 1A-B are fluorescence photographs of human skin to which compounds of the invention were applied. A formulation containing phenylalanin-ALA-amide (compound 1) at 80 wt. % was topically applied to the skin and pictures were taken 3 hours following administration. In FIG. 1A, skin was not pre-treated and fluorescence was measured with 20 milliseconds (ms) exposure time. In FIG. 1B, hair was mechanically removed by wax-epilation before administration of the formulation and fluorescence was measured with 10 milliseconds (ms) exposure time.
Formulations comprising compounds of the invention and controls are administered topically on the forearm or the leg using the Tegaderm™ transparent dressing. This dressing enables the transport of water and oxygen according to the specifications of the manufacturer. […]
A fluorescence imaging system illustrated in FIG. IX of WO 03/041673 is used to assess the extent and level of PpIX production in “macroscopic” samples (parts of the human body such as: forearm, leg, back, etc.). […] As the goal is to assess the relative level of PpIX, red light at 635 nm is chosen as PpIX fluorescence excitation wavelength. It is indeed well known that red light penetrates deeper in the cutaneous tissues than green and violet light, the later two wavelengths corresponding to larger PpIX absorption peaks (see the PpIX fluorescence excitation and emission spectra presented on the right side in FIG. IX of WO 03/041673).
As presented in the schematic diagram presented in FIG. IX of WO 03/041673, this fluorescence imaging system involves a modified 300 W D-light source 1 (Xe arc lamp from Storz, Tuttlingen, Germany) equipped with a red bandpass filter (635 nm, 20 nm FWHM; Chroma, USA). This fluorescence excitation light is coupled in a Storz 4 mm diameter light guide 2. […]

Propionobacterium acnes = assay: Photodestruction of P. acnes immediately after PDT; assay type: in vivo, human; details: face of a volunteer
Description: Immediately after illumination, the bacteria present on the administration zone are collected by immersion in a collection buffer allowing bacteria to detach and survive in suspension. Collection samples are inoculated, after suitable dilution, on agar plates, which are selective for p. acnes. CFU (Colony Forming Units) are counted after 5 days of growth on selective medium.

[2] = system: skin area affected with seborrheic dermatitis; assay: Cosmetic PDT treatment of seborrheic dermatitis; assay type: in vivo, human; details: 5% in Cold cream
sebaceous gland = assay: Microscopic fluorescence image of tissue sample; details: formulation comprising 20 wt. %
Pytirosporum ovale = assay: Photodestruction of the yeast P. ovale 24 hours after PDT; assay type: in vivo, human; details: 5 wt. % in Cold cream; 3 hours, then 5-15 J/cm^2 red light; 24 hours after light exposure
Experimental: 24 hours after the end of the light exposure, scales are collected using a patch-strip method (D-Squame. Cuderm Corp. Dallas. US) and P. ovale can be counted under fluorescence microscope using a fluorochrome which is selective for this type of yeast (Fungiqual A. Kandern. D E).

[3] = skin treatment: No (intact skin)
[4] = skin treatment: SC removed by dry shaving
[5] = fluorescence on intact skin relative to skin with SC removed

Experimental for psoriatic plaque: ALA-DGME 5% is prepared in Cold cream as in the previous example. 50 mg of 5% ALA-DGME in Cold cream are applied to the psoriatic plaque. 3 hours later, the zone which received ALA-DGME is exposed to 10-30 J/cm^2 of red light. The treatment is repeated 6 times with a 2 weeks interval.

Compound | Fluoresence epidermis (stratum corneum; [3]) [arbitrary relative units] | Fluoresence epidermis (stratum corneum; [4]) [arbitrary relative units] | Penetration through epidermis (%) (stratum corneum; [5]) | also measured
NCC(=O)CCC(=O)O [ALA, 5-aminolevulinic acid, reference compound] | 31 | 52 |  | allergenic potential [1]: has not demonstrated such an allergenic potential; Penetration through epidermis (%) (stratum corneum; human): 59.6%; distribution of fluorescence on skin (hair follicles): fluorescence is non-specific and uniformly distributed over the entire skin area
CCOCCOCCOC(=O)CCC(=O)CN [ALA-DGME, diethylene-glycol monoethyl ether ester of ALA] | 20 | 57 | 35.1 | adverse reaction on the skin (Propionobacterium acnes; 5% in Cold cream plus red light): No adverse reaction was observed; reduction in Propionobacerium acnes counts (CFU) (Propionobacterium acnes; 5% in Cold cream, 3 hours, then 5-15 J/cm^2 red light, immediately after illumination): suitable to kill microorganism present on the skin; also recorded: substantial reduction of bacterial counts; side effects to the surrounding skin ([2]; 24 hours after PDT): no side effects to the surrounding skin; skin reaction after PDT ([2]; 24 hours after PDT, 5-15 J/cm^2 red light): slight redness; selectivity of fluorescence for affected skin ([2]; topically applied on skin with seborrheic dermatitis, 3 hours): accumulated specifically in the skin area affected with SD; also recorded: only affected skin area shows red fluorescence; psoriasis plaque after several PDT treatments (psoriatic plaque; 5% in Cold cream, 10-30 J/cm^2 red light, repeated 6 times with 2 weeks interval): partial clearance; accumulation of photosensitizer in psoriasis lesions (red fluorescence) (psoriatic plaque; 5% in Cold cream, 3 hours): accumulated specifically in the psoriasis lesions; side effects to the surrounding skin (psoriatic plaque; after several PDT treatments, 5% in Cold cream): no side effects to the surrounding skin; selectivity of fluorescence for psoriasis plaque (psoriatic plaque; formulation comprising 20 wt. % (figure legend)): red fluorescence covering the psoriasis plaque solely; fluorescence in tissue sample (microscopic image) (sebaceous gland): fluorescence in sebaceous gland; reduction in Pytirosporum ovale counts (Pytirosporum ovale): substantial reduction of yeast counts; distribution of fluorescence on skin (hair follicles): fluorescence is discretely associated to specific small spots
NCC(=O)CCC(=O)NC(Cc1ccccc1)C(=O)O (stereo not shown) [Compound 1, Phenylalanine-ALA-amide] |  |  |  | fluorescence at positions of hair follicles (hair follicles; 80 wt. % formulation, hair removed by wax-epilation, 3 hours after administration, 10 ms exposure): spots of high fluorescence
NCC(=O)CCC(=O)Oc1ccc(CC(N)C(=O)O)cc1 (stereo not shown) [Compound 2, Tyrosine-ALA-ester] | 0 | 114 |  | 
CC(C)CCCC(C)C1CCC2C3CC=C4CC(OC(=O)CCC(=O)CN)CCC4(C)C3CCC12C (stereo not shown) [Compound 6, ALA-Cholesteryl-ester] | 1 | 25 |  | increase of fluorescence upon removal of the stratum corneum (stratum corneum): 25 fold; Penetration through epidermis (%) (stratum corneum; human): 4%
NCC(=O)CCC(=O)O[C@H]1O[C@H](CO)[C@@H](O)[C@H](O)[C@H]1O [Compound 11, 1′-α-D-Glucose-ALA-ester] | 0 | 12 | 0 | 
NCC(=O)CCC(=O)OCC(O)C1OC(=O)C(O)=C1O (stereo not shown) [Compound 12, ALA-ascorbate-ester] | 4 | 20 |  | 
CCCCCCOC(=O)CCC(=O)CN [Hexyl-ALA-ester, reference compound] | 37 | 88 |  | Penetration through epidermis (%) (stratum corneum): 42%
ALA-Cholesterylhexyl-ester [Compound 5] | 7 | 94 | 7.44 | 
ALA-ethyl-ester-ALA [Compound 8] | 30 | 225 | 13.3 | increase of fluorescence upon removal of the stratum corneum (stratum corneum): 7.5 fold; Penetration through epidermis (%) (stratum corneum; fluorescence on intact skin relative to skin with SC removed, listed as compound 8): 13.3%
Phloroglucinol-tri-ALA-ester [Compound 7] | 30 | 187 | 16 | 

From patent US8492578B2, “Compounds useful in therapeutic and cosmetic methods” (Photoderma SA, priority 2007, dated 2013)
